The target of experiment [1] is T1, HiBit-KRAS^G12C (Homo sapiens, UniProt P01116, G12C). Put plainly: HiBit degradation assay in MiaPaCa-2 HiBit-KRas^G12C cells. The class given is cell-based. To be noted: 24 hours; for Dmax: MIA PaCa-2, MiaPaCa-2 HiBit-KRas^G12C cells, read-out: KRas^G12C-HiBiT (MiaPaCa; 0.5% DMSO) DMax. The gist of the method: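 MiaPaCa-2 cells with CRISPR N-terminal HiBit knock-in on one endogenous KRAS^G12C allele, treated 24 hours at 37° C with compound titrated 10 μM to 20 nM (0.1% or 0.5% DMSO). Lytic HiBit luminescence normalized to DMSO, 4-parameter fit giving DC50 and Dmax; points cytotoxic to […] cells by alamar blue excluded.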
(HiBiT is a short tag that completes a luciferase, so light tracks the accessible tagged protein.)

The target of experiment [2] is T1, HiBit-KRAS^G12C. Put plainly: HiBit degradation assay in SW1573 HiBit-KRas^G12C cells. The class given is cell-based. Further details: expressed in transfected cells; host or cells: SW1573 (clone E6), modified pcDNA3.1 vector, TK promoter. To be noted: 24 hours. The gist of the method:
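SW1573 cells stably expressing N-terminally HiBit-tagged KRAS G12C, under the TK promoter, were treated 24 h at 37 °C with 10 μM to 20 nM compound in 0.1% or 0.5% DMSO. Residual HiBit luminescence normalised to DMSO and fitted with a 4-parameter model for DC50 and Dmax. Points with ≥50% viability loss (alamar blue) excluded.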

Setting [3] is: read-out: KRas^G12C-HiBiT (MiaPaCa; 0.5% DMSO) IC50, MiaPaCa-2 HiBit-KRas^G12C cells, 0.5% DMSO.
Where [4] appears, read: SW1573, SW1573 HiBit-KRas^G12C, 0.5% DMSO, read-out: KRas^G12C-HiBiT (SW1573; 0.5% DMSO) Dmax**.
Where [5] appears, read: read-out: KRas^G12C-HiBiT (SW1573; 0.5% DMSO) IC50***, SW1573 HiBit-KRas^G12C, 0.5% DMSO.
[6] abbreviates: MiaPaCa-2 HiBit-KRas^G12C cells, 0.5% DMSO, maximum degradation.
[7] abbreviates: SW1573 HiBit-KRas^G12C, 0.1% DMSO, read-out: KRas^G12C-HIBit (SW1573; 0.1% DMSO) DC50*.

T1 sequence (P01116 1-186 isoform P01116-2 G12C limits assumed): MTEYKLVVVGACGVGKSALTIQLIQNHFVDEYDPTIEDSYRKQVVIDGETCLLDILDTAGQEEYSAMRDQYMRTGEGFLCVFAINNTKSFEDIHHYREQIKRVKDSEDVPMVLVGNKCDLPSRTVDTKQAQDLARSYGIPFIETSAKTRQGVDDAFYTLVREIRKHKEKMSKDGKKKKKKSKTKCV

With `C=CC(=O)N1CCN(c2nc(OCCN3CCC4(CC3)CN(c3cc([C@H](C(=O)N5C[C@H](O)C[C@H]5C(=O)N[C@@H](C)c5ccc(-c6ccnn6C)cc5)C(C)C)on3)C4)nc3c(F)c(-c4cc(O)cc5ccccc45)c(Cl)cc23)C[C@@H]1CC#N` (atropisomer, axis not shown) [Compound 116, (2S,4R)-1-[(2R)-2-(3-{7-[2-({6-chloro-4-[(3S)-3-(cyanomethyl)-4-(prop-2-enoyl)piperazin-1-yl]-8-fluoro-7-(3-hydroxynaphthalen-1-yl)quinazolin-2-yl}oxy)ethyl]-2,7-diazaspiro[3.5]nonan-2-yl}-1,2-oxazol-5-yl)-3-methylbutanoyl]-4-hydroxy-N-[(1S)-1-[4-(1-methyl-1H-pyrazol-5-yl)phenyl]ethyl]pyrrolidine-2-carboxamide], the Dmax was > 70% at HiBit-KRAS^G12C [1] (0.5% DMSO, maximum degradation) and > 70% on HiBit-KRAS^G12C [2] (setting [4]). Moreover, the DC50 on HiBit-KRAS^G12C [1] (setting [3]) is 100 to 1000 nM; at HiBit-KRAS^G12C [2] (setting [5]), < 100 nM.

In the case of `C=C(F)C(=O)N1CCN(c2nc(OCCN3CCC(F)(COc4cc([C@H](C(=O)N5C[C@H](O)C[C@H]5C(=O)N[C@@H](C)c5ccc(-c6scnc6C)cc5)C(C)C)on4)CC3)nc3c(F)c(-c4cc(O)cc5ccccc45)c(Cl)cc23)C[C@@H]1CC#N` (atropisomer, axis not shown) [Compound 121, (2S,4R)-1-[(2R)-2-[3-({1-[2-({6-chloro-4-[(3S)-3-(cyanomethyl)-4-(2-fluoroprop-2-enoyl)piperazin-1-yl]-8-fluoro-7-(3-hydroxynaphthalen-1-yl)quinazolin-2-yl}oxy)ethyl]-4-fluoropiperidin-4-yl}methoxy)-1,2-oxazol-5-yl]-3-methylbutanoyl]-4-hydroxy-N-[(1S)-1-[4-(4-methyl-1,3-thiazol-5-yl)phenyl]ethyl]pyrrolidine-2-carboxamide], the Dmax on HiBit-KRAS^G12C [1] (0.5% DMSO, maximum degradation) was > 70%; on HiBit-KRAS^G12C [2] (setting [4]) it was 35 to 70%. Further, the DC50 on HiBit-KRAS^G12C [1] (setting [3]) was 100 to 1000 nM; on HiBit-KRAS^G12C [2] (setting [5]), < 100 nM.

`C=C(F)C(=O)N1CCN(c2nc(OCCN3CCC(F)(COc4cc([C@@H](C(=O)N5C[C@H](O)C[C@H]5C(=O)N[C@@H](C)c5ccc(-c6scnc6C)cc5)C(C)C)on4)CC3)nc3c(F)c(-c4cc(O)cc5ccccc45)c(Cl)cc23)C[C@@H]1CC#N` (atropisomer, axis not shown) [Compound 122, (2S,4R)-1-[(2S)-2-[3-({1-[2-({6-chloro-4-[(3S)-3-(cyanomethyl)-4-(2-fluoroprop-2-enoyl)piperazin-1-yl]-8-fluoro-7-(3-hydroxynaphthalen-1-yl)quinazolin-2-yl}oxy)ethyl]-4-fluoropiperidin-4-yl}methoxy)-1,2-oxazol-5-yl]-3-methylbutanoyl]-4-hydroxy-N-[(1S)-1-[4-(4-methyl-1,3-thiazol-5-yl)phenyl]ethyl]pyrrolidine-2-carboxamide]: the DC50 at HiBit-KRAS^G12C [1] (setting [3]) and at HiBit-KRAS^G12C [2] (setting [5]) was > 1000 nM throughout.

For the molecule `C=CC(=O)N1CCN(c2nc(OCCN3CCC(OCCOc4cc([C@H](C(=O)N5C[C@H](O)C[C@H]5C(=O)N[C@@H](C)c5ccc(-c6scnc6C)cc5)C(C)C)on4)CC3)nc3c(F)c(-c4cc(O)cc5ccccc45)c(Cl)cc23)C[C@@H]1CC#N` (atropisomer, axis not shown) [Compound 3, (2S,4R)-1-((R)-2-(3-(2-((1-(2-(((S)-4-((S)-4-acryloyl-3-(cyanomethyl)piperazin-1-yl)-6-chloro-8-fluoro-7-(3-hydroxynaphthalen-1-yl)quinazolin-2-yl)oxy)ethyl)piperidin-4-yl)oxy)ethoxy)isoxazol-5-yl)-3-methylbutanoyl)-4-hydroxy-N-((S)-1-(4-(4-methylthiazol-5-yl)phenyl)ethyl)pyrrolidine-2-carboxamide], the “KRas^G12C-HiBiT (MiaPaCa; 0.1% DMSO) DMax” value on HiBit-KRAS^G12C [1] (MiaPaCa-2 HiBit-KRas^G12C cells, 0.1% DMSO, maximum degradation) is given as “A (A ≥ 70)”. Further, the “KRas^G12C-HiBiT (MiaPaCa; 0.5% DMSO) DMax” value on HiBit-KRAS^G12C [1] (setting [6]) is “A (A ≥ 70)”. The “KRas^G12C-HiBit (SW1573; 0.1% DMSO) Dmax**” value at HiBit-KRAS^G12C [2] (SW1573 HiBit-KRas^G12C, 0.1% DMSO) is “A (A ≥ 70)”. Moreover, the DC50 at HiBit-KRAS^G12C [2] (setting [7]) was < 100 nM.

For `C=C(F)C(=O)N1CCN(c2nc(OCCN3CCC(COc4cc([C@@H](C(=O)N5C[C@H](O)C[C@H]5C(=O)N[C@@H](C)c5ccc(-c6ccnn6C)cc5)C(C)C)on4)CC3)nc3c(F)c(-c4cc(O)cc5ccccc45)c(Cl)cc23)C[C@@H]1CC#N` [Compound 158, (2S,4R)-1-[(2S)-2-[3-({1-[2-({6-chloro-4-[(3S)-3-(cyanomethyl)-4-(2-fluoroprop-2-enoyl)piperazin-1-yl]-8-fluoro-7-(3-hydroxynaphthalen-1-yl)quinazolin-2-yl}oxy)ethyl]piperidin-4-yl}methoxy)-1,2-oxazol-5-yl]-3-methylbutanoyl]-4-hydroxy-N-[(1S)-1-[4-(1-methyl-1H-pyrazol-5-yl)phenyl]ethyl]pyrrolidine-2-carboxamide], the DC50 on HiBit-KRAS^G12C [1] (setting [3]) and at HiBit-KRAS^G12C [2] (setting [5]) was > 1000 nM in each case.

In the case of `C=CC(=O)N1CCN(c2nc(OCCN3CCC(COc4cc([C@H](C(=O)N5C[C@H](O)C[C@H]5C(=O)N[C@@H](C)c5ccc(C#N)cc5)C(C)C)on4)CC3)nc3c(F)c(-c4cc(O)cc5ccccc45)c(Cl)cc23)C[C@@H]1CC#N` [Compound 160, (2S,4R)-1-[(2R)-2-[3-({1-[2-({6-chloro-4-[(3S)-3-(cyanomethyl)-4-(prop-2-enoyl)piperazin-1-yl]-8-fluoro-7-(3-hydroxynaphthalen-1-yl)quinazolin-2-yl}oxy)ethyl]piperidin-4-yl}methoxy)-1,2-oxazol-5-yl]-3-methylbutanoyl]-N-[(1S)-1-(4-cyanophenyl)ethyl]-4-hydroxypyrrolidine-2-carboxamide], the Dmax on HiBit-KRAS^G12C [1] (0.5% DMSO, maximum degradation) is < 35%. Besides, the DC50 is 100 to 1000 nM on HiBit-KRAS^G12C [1] (setting [3]) and > 1000 nM at HiBit-KRAS^G12C [2] (setting [5]).

As to `C=CC(=O)N1CCN(c2nc(O[C@H](C)CN3CCN(CCCOC4CN(CC(=O)N[C@H](C(=O)N5C[C@H](O)C[C@H]5C(=O)N[C@@H](C)c5ccc(-c6scnc6C)cc5)C(C)(C)C)C4)CC3)nc3c(F)c(-c4cc(O)cc5ccccc45)c(Cl)cc23)CC1` [Compound 57, (2S,4R)-1-[(2S)-2-{2-[3-(3-{4-[(2R)-2-{[6-chloro-8-fluoro-7-(3-hydroxynaphthalen-1-yl)-4-[4-(prop-2-enoyl)piperazin-1-yl]quinazolin-2-yl]oxy}propyl]piperazin-1-yl}propoxy)azetidin-1-yl]acetamido}-3,3-dimethylbutanoyl]-4-hydroxy-N-[(1S)-1-[4-(4-methyl-1,3-thiazol-5-yl)phenyl]ethyl]pyrrolidine-2-carboxamide], the DC50 is > 1000 nM on HiBit-KRAS^G12C [1] (read-out: KRas^G12C-HiBiT (MiaPaCa; 0.1% DMSO) IC50, MiaPaCa-2 HiBit-KRas^G12C cells, 0.1% DMSO) and 100 to 1000 nM on HiBit-KRAS^G12C [2] (setting [7]). Further, the Dmax at HiBit-KRAS^G12C [2] (SW1573, read-out: KRas^G12C-HiBit (SW1573; 0.1% DMSO) Dmax**, SW1573 HiBit-KRas^G12C, 0.1% DMSO) was < 35%.

For the molecule `C=CC(=O)N1CCN(c2nc(OCCN3CCC4(CC3)CN(c3cc([C@H](C(=O)N5C[C@H](O)C[C@H]5C(=O)N[C@@H](C)c5ccc(-c6scnc6C)cc5)C(C)C)on3)C4)nc3c(F)c(-c4cc(O)cc5ccccc45)c(Cl)cc23)C[C@@H]1CC#N` (atropisomer, axis not shown) [Compound 107, (2S,4R)-1-[(2R)-2-(3-{7-[2-({6-chloro-4-[(3S)-3-(cyanomethyl)-4-(prop-2-enoyl)piperazin-1-yl]-8-fluoro-7-(3-hydroxynaphthalen-1-yl)quinazolin-2-yl}oxy)ethyl]-2,7-diazaspiro[3.5]nonan-2-yl}-1,2-oxazol-5-yl)-3-methylbutanoyl]-4-hydroxy-N-[(1S)-1-[4-(4-methyl-1,3-thiazol-5-yl)phenyl]ethyl]pyrrolidine-2-carboxamide], the “KRas^G12C-HiBiT (MiaPaCa; 0.5% DMSO) DMax” value on HiBit-KRAS^G12C [1] (setting [6]) is reported as “B (35 < B < 70)”. The DC50 at HiBit-KRAS^G12C [1] (setting [3]) and on HiBit-KRAS^G12C [2] (setting [5]) was < 100 nM throughout. On HiBit-KRAS^G12C [2] (SW1573 HiBit-KRas^G12C, 0.5% DMSO), the “KRas^G12C-HiBiT (SW1573; 0.5% DMSO) Dmax**” value was “B (35 < B < 70)”.

For the origin of these results see patent US20220370416A1, “COMPOUNDS AND METHODS FOR TARGETED DEGRADATION OF KRAS” (Arvinas Operations, Inc., priority 2020, published 2022).
